Test results published in patent publication US9926299B2, “Inhibitors of bruton's tyrosine kinase” (Centaurus BioPharma Co., Ltd., priority 2012, dated 2018).

Experiments:
[1] = biological target: BTK kinase (Homo sapiens (Human), UniProt Q06187); assay: Btk kinase enzymatic assay (HTRF); type: biochemical; conditions: ATP at Km
Method: Btk kinase activity was determined using a Homogeneous Time-Resolved Fluorescence (HTRF) methodology (Cisbio). […] The mixture was centrifuged and incubated for 5 min. […] For each compound, enzyme activity was measured at various concentrations of compound, and IC50s were obtained by GraFit Software 6.0 (Erithacus Software).

[2] = test system: Ramos cells; assay: BCR-induced calcium flux fluorescence-based assay in Ramos cells; conditions: Ramos cells stimulated with goat anti-human IgM antibody; read-out: Ramos Cell Ca Flux IC50
Method: Calcium flux fluorescence-based assays were performed using Fluo-4 Direct™ Calcium Assay Kits (purchased from Invitrogen) in a FlexStation III (purchased from Molecular Devices) according to manufacturer instructions. In brief, actively growing Romas cells in RPM1-1640 medium (purchased from Invitrogen) supplemented with 10% FBS (purchased from Hyclone) were washed and re-plated in low serum medium at approximately 1×10^5 cells per 45 μL per well in a 96-well plate (purchased from Corning), then added 45 μL of dye (purchased from Invitrogen) and incubated at 37 degree for 1 hour. Compounds to be assayed were dissolved and 3-fold serially diluted in DMSO and then diluted by 100 times in low serum medium. Then 10 μL of the diluted mixture were added to the above 96-well plate (final DMSO concentration was 0.1%) and incubated at 37 degree in 5% CO2 incubator for 0.5 hour. The compound-treated cells were stimulated with a goat anti-human IgM antibody (10 μg/ml; purchased from SouthernBiotech) and read in the FlexStation III using a λEx=494 nM and […] for 90 seconds. The relative fluorescence unit (RFU) and the IC50 were recorded and analyzed using a GraphPad Prism 5 (GraphPad Software).

Chain of BTK kinase (Q06187 whole entry): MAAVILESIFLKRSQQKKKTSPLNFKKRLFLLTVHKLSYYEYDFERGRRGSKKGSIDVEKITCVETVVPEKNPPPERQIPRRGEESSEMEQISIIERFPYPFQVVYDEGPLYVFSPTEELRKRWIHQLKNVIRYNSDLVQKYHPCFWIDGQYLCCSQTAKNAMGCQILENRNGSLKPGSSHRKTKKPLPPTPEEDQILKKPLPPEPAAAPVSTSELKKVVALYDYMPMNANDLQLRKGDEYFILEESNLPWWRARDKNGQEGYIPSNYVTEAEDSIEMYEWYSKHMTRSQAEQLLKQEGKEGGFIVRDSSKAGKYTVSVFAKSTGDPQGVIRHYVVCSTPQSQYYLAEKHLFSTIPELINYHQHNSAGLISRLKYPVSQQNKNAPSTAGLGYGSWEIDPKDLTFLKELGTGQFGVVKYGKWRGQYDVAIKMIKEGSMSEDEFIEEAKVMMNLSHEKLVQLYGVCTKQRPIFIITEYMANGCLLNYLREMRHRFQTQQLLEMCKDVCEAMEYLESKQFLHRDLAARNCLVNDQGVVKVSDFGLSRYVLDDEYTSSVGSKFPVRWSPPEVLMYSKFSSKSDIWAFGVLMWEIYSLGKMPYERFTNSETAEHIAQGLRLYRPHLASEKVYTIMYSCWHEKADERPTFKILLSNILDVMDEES

Compound | IC50 [1] | IC50 [2]
C=CC(=O)N1CCC(n2nc(-c3ccc(Oc4ccccc4)cc3)c(C(N)=O)c2N)CC1 [Example 24, 1-(1-acryloylpiperidin-4-yl)-5-amino-3-(4-phenoxyphenyl)-1H-pyrazole-4-carboxamide] | < 100 nM | < 100 nM
C=CC(=O)N1CC[C@@H](n2nc(-c3ccc(Oc4ccc(C)c([N+](=O)[O-])c4)cc3)c(C(N)=O)c2N)C1 [Example 48, (R)-1-(1-acryloylpyrrolidin-3-yl)-5-amino-3-(4-(4-methyl-3-nitrophenoxy)phenyl)-1H-pyrazole-4-carboxamide] | < 100 nM | < 100 nM
C#CC(=O)N1CCCC(n2nc(-c3ccc(Oc4ccccc4)cc3)c(C(N)=O)c2N)C1 (centres unmarked) [Example 26, 5-amino-3-(4-phenoxyphenyl)-1-(1-propioloylpiperidin-3-yl)-1H-pyrazole-4-carboxamide] | < 100 nM | < 100 nM
C=CC(=O)N1CC[C@@H](n2nc(-c3ccc(Oc4ccccc4)cc3)c(C(N)=O)c2N)C1 [25 (R-isomer)] | < 100 nM | < 100 nM
C=CC(=O)N1CCC(n2nc(-c3ccc(Oc4ccccc4)cc3)c(C(N)=O)c2N)C1 (centres unmarked) [Example 25, 1-(1-acryloylpyrrolidin-3-yl)-5-amino-3-(4-phenoxyphenyl)-1H-pyrazole-4-carboxamide] | < 100 nM | < 100 nM
C=CC(=O)N1CCC[C@@H](n2nc(-c3ccc(Oc4ccccc4)cc3)c(C(N)=O)c2NC)C1 [Example 2, (R)-1-(1-acryloylpiperidin-3-yl)-5-(methylamino)-3-(4-phenoxyphenyl)-1H-pyrazole-4-carboxamide] | < 100 nM | < 100 nM

The remaining lines, values ahead:

IC50 [1] | IC50 [2] | Compound
< 100 nM | < 100 nM | C=CC(=O)N1CC[C@@H](n2nc(-c3ccc(Oc4cc(F)cc(F)c4)cc3)c(C(N)=O)c2N)C1 [Example 41, (R)-1-(1-acryloylpyrrolidin-3-yl)-5-amino-3-(4-(3,5-difluorophenoxyl)phenyl)-1H-pyrazole-4-carboxamide]
< 100 nM | < 100 nM | C=CS(=O)(=O)N1CCCC(n2nc(-c3ccc(Oc4ccccc4)cc3)c(C(N)=O)c2N)C1 (centres unmarked) [Example 27, 5-amino-3-(4-phenoxyphenyl)-1-(1-(vinylsulfonyl)piperidin-3-yl)-1H-pyrazole-4-carboxamide]
< 100 nM | < 100 nM | C=CC(=O)NCCn1nc(-c2ccc(Oc3ccccc3)cc2)c(C(N)=O)c1N [Example 31, 1-(2-acrylamidoethyl)-5-amino-3-(4-phenoxyphenyl)-1H-pyrazole-4-carboxamide]
< 100 nM | < 100 nM | C=CC(=O)N1CC[C@H](n2nc(-c3ccc(Oc4ccccc4)cc3)c(C(N)=O)c2N)C1 [25 (S-isomer)]
